The target in assay [1] is Insulin receptor (Homo sapiens) (UniProt P06213). In words: Inhibition of human INSR catalytic domain expressed in baculovirus assessed as substrate phosphorylation using fluorescence-labelled peptides as substrate at 0.2 uM after 90 mins by microfluidic peptide phosphorylation assay.
Assay [2] addresses T1, Serine/threonine-protein kinase BRSK1 (Homo sapiens) (UniProt Q8TDC3).
T1 sequence (whole entry): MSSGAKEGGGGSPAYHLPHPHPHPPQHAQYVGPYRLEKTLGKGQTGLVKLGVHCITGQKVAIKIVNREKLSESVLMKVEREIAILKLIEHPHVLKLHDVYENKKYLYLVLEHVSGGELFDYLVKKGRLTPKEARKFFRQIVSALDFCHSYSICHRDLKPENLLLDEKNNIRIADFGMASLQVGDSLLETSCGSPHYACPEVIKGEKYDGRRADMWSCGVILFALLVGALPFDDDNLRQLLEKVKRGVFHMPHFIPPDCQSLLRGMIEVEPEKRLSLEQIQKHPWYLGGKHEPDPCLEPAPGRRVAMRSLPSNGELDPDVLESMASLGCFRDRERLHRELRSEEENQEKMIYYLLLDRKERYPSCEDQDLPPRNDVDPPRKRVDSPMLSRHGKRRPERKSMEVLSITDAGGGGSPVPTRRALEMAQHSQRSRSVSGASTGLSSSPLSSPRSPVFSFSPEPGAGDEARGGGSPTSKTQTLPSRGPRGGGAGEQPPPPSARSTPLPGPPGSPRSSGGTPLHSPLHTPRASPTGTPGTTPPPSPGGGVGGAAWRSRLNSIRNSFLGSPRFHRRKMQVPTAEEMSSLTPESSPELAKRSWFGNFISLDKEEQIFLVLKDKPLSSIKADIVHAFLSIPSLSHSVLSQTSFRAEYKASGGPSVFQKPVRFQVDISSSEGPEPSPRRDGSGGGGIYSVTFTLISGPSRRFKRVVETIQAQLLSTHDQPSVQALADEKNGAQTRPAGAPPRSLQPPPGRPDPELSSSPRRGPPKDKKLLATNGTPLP
In words: Inhibition of human full length BRSK1 expressed in baculovirus assessed as substrate phosphorylation using fluorescence-labelled peptides as substrate at 0.2 uM after 90 mins by microfluidic peptide phosphorylation assay.

The target in assay [3] is T1, Serine/threonine-protein kinase BRSK1 (Homo sapiens). The assay is described as follows: Inhibition of human full length BRSK1 expressed in baculovirus assessed as substrate phosphorylation using fluorescence-labelled peptides as substrate at 0.1 uM after 90 mins by microfluidic peptide phosphorylation assay.
Assay [4] has as its target Vascular endothelial growth factor receptor 2 (Homo sapiens) (UniProt P35968). In words: Inhibition of human KDR cytoplasmic domain expressed in baculovirus assessed as substrate phosphorylation using fluorescence-labelled peptides as substrate at 0.1 uM after 90 mins by microfluidic peptide phosphorylation assay.
The subject of assay [5] is Tyrosine-protein kinase ABL1 (Homo sapiens), P00519 [Q252H]. In words: Inhibition of human truncated ABL Q252H mutant expressed in baculovirus assessed as substrate phosphorylation using fluorescence-labelled peptides as substrate at 0.1 uM after 90 mins by microfluidic peptide phosphorylation assay.
Assay [6] deals with T2, Interleukin-1 receptor-associated kinase 4 (Homo sapiens) (UniProt Q9NWZ3).
T2 sequence (whole entry): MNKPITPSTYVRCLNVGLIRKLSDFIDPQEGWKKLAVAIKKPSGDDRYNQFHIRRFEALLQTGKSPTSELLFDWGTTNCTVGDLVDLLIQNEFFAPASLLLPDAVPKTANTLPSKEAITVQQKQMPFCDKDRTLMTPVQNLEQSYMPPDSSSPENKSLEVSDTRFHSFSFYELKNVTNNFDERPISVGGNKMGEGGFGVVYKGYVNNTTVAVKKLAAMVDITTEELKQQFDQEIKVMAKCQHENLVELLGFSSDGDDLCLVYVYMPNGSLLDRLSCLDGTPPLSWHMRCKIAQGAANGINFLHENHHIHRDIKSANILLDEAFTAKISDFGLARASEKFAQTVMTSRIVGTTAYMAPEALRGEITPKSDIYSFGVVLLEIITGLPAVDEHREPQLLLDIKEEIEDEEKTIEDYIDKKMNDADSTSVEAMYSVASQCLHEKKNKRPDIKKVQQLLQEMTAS
In words: Inhibition of human IRAK4 catalytic domain expressed in baculovirus assessed as substrate phosphorylation using fluorescence-labelled peptides as substrate at 95 uM after 90 mins by microfluidic peptide phosphorylation assay.

Assay [7] addresses Tyrosine-protein kinase Fyn (Homo sapiens) (UniProt P06241). In words: Inhibition of human full length FYN expressed in baculovirus assessed as substrate phosphorylation using fluorescence-labelled peptides as substrate at […] after 90 mins by microfluidic peptide phosphorylation assay.
Assay [8] addresses Aurora kinase B (Homo sapiens) (UniProt Q96GD4). In words: Inhibition of human full length AurB expressed in baculovirus assessed as substrate phosphorylation using fluorescence-labelled peptides as substrate at […] after 90 mins by microfluidic peptide phosphorylation assay.
Assay [9] concerns the target T3, Inhibitor of nuclear factor kappa-B kinase subunit beta (Homo sapiens) (UniProt O14920).
T3 sequence (whole entry): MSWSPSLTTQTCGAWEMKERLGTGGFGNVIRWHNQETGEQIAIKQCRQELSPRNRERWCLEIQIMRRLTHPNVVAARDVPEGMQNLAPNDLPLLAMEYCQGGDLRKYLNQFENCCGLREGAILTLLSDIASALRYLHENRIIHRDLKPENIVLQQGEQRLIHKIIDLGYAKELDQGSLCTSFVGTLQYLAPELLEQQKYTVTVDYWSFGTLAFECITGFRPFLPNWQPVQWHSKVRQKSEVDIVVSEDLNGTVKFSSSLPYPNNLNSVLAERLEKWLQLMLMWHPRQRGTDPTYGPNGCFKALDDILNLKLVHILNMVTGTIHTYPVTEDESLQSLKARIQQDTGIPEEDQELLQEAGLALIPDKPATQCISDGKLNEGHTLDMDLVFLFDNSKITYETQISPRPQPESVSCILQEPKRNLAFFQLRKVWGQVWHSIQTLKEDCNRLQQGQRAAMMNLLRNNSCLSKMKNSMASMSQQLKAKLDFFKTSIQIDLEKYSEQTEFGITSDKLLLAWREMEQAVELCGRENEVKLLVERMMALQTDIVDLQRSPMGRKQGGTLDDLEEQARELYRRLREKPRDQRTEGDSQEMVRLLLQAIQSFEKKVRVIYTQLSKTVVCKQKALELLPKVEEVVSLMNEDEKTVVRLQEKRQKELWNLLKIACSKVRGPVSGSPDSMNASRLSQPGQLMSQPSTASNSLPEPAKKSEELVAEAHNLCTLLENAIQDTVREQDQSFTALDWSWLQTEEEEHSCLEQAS
In words: Inhibition of human full length IKK beta expressed in baculovirus assessed as substrate phosphorylation using fluorescence-labelled peptides as substrate at 2 uM after 90 mins by microfluidic peptide phosphorylation assay.

For assay [10], the target named is RAC-alpha serine/threonine-protein kinase (Homo sapiens) (UniProt P31749). The assay is described as follows: Inhibition of human AKT1 catalytic domain expressed in baculovirus assessed as substrate phosphorylation using fluorescence-labelled peptides as substrate at 70 uM after 90 mins by microfluidic peptide phosphorylation assay.
Sequence of RAC-alpha serine/threonine-protein kinase (Homo sapiens) (P31749 whole entry, the tested form may be a part): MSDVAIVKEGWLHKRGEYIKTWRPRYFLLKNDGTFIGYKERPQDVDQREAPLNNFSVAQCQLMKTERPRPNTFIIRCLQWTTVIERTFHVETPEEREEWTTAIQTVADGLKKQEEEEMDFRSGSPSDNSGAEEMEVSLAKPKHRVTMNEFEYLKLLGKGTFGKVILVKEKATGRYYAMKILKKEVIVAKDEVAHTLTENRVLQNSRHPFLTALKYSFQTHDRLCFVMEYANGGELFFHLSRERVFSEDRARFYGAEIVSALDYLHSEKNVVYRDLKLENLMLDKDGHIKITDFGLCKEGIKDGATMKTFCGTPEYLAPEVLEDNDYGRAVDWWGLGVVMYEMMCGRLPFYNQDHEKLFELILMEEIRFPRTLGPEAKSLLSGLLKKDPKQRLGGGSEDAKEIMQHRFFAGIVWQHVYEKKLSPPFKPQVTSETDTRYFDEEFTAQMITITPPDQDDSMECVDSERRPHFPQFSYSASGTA

Sequence of Vascular endothelial growth factor receptor 2 (Homo sapiens) (P35968 whole entry, the tested form may be a part): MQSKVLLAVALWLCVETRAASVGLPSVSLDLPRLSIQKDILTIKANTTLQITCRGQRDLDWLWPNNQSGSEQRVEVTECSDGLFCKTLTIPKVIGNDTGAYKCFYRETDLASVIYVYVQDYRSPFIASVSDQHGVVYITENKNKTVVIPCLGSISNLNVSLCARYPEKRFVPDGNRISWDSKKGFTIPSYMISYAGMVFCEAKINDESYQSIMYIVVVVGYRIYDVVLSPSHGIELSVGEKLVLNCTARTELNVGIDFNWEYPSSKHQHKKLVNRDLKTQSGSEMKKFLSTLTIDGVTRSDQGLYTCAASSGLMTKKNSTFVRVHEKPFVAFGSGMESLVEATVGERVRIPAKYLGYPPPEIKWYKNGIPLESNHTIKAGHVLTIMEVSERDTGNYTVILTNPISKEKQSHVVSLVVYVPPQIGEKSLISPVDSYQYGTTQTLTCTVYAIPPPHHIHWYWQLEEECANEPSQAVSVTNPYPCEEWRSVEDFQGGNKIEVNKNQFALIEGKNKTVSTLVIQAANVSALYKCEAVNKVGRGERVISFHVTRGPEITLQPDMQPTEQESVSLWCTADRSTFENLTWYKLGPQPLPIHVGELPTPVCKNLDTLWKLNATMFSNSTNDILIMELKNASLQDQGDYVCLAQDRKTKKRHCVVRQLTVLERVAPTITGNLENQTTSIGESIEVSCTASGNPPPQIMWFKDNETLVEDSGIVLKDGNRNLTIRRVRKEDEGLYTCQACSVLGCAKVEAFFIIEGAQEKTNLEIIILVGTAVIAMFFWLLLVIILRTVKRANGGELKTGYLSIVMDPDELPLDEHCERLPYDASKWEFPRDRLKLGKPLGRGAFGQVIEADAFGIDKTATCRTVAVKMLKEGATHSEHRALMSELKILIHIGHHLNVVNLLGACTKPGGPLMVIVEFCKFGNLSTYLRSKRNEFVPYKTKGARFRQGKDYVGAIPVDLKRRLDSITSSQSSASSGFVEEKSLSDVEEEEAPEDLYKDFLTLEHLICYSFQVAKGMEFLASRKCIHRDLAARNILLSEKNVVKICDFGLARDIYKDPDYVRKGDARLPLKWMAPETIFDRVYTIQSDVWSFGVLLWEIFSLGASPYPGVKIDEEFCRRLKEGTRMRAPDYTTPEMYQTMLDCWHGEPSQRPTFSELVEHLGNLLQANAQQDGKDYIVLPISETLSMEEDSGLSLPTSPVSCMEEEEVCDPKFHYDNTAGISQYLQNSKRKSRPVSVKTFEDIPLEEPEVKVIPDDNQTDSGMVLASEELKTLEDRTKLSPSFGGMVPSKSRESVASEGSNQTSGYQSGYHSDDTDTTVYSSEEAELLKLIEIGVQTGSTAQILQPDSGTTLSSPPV
Sequence of Tyrosine-protein kinase Fyn (Homo sapiens) (P06241 2-537 limits assumed): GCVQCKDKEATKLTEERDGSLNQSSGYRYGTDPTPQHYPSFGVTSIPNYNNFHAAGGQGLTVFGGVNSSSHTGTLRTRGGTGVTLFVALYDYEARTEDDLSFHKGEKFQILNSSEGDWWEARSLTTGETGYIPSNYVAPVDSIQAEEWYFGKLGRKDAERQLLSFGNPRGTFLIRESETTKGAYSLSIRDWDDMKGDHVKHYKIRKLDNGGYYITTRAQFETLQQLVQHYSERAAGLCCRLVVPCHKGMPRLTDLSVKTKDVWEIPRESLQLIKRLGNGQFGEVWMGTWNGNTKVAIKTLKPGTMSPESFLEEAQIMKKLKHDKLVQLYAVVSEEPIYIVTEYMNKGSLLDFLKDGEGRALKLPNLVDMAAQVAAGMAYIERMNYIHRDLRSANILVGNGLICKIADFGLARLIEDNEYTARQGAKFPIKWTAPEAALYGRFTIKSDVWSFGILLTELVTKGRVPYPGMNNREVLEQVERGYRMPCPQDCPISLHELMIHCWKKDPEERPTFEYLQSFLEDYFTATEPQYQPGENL
Sequence of Aurora kinase B (Homo sapiens) (Q96GD4 whole entry): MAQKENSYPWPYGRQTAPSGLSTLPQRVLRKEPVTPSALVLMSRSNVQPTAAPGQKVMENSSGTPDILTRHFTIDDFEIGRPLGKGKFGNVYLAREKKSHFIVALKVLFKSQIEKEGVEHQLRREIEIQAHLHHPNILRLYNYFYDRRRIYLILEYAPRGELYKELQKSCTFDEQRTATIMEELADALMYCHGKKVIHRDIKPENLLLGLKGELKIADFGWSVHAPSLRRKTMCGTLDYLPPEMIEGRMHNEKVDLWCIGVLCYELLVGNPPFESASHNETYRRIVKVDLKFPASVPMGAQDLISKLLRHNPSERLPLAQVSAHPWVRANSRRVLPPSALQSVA

Regarding `Clc1ccc(C2(c3ccc(-c4ncnc5[nH]cnc45)cc3)CCNCC2)cc1`, the inhibition in assay [1] and in [2] was 11% each time. For the molecule `C[C@H](CN(C)C)Oc1nc(Nc2cc3cccc(Cl)c3cn2)cnc1C#N`, the results for the inhibition in assay [3], in [4] and in assay [5] were 16.5%, 14% and 4%, respectively. Turning to `NCCc1ccc(-c2ncnc3[nH]cnc23)cc1`, the inhibition (in general, the drop in the measured response relative to a control, in per cent) in assay [6] was determined as 34%. In the case of `COC(=O)c1cnc(Nc2cnc(C#N)cn2)cc1NCC1CCNCC1`, the figures for the inhibition in assay [7] and in assay [8] were 2% and 4%, respectively.

In the case of `NC1CCN(c2ncnc3[nH]ccc23)CC1`, in assay [9], the inhibition worked out at 1%. Regarding `CNCc1ccc(-c2ncnc3[nH]cnc23)cc1`, in assay [10], the inhibition was determined as 64.5%.

For the origin of these results see ChEMBL document CHEMBL3132769, “Fragment growing to retain or alter the selectivity of anchored kinase hinge-binding fragments” (Medchemcomm, 2014).
